Experimental data from ChEMBL document CHEMBL1142693, “Design, synthesis, and in vitro evaluation of dipeptide-based antibody minor groove binder conjugates” (J Med Chem, 2005).

Key:
[1] = Inhibitory concentration againstHuman Karpas 299 Anaplastic Large Cell Lymphoma (CD30+) at 96th hour; n=9; type: functional, Homo sapiens
[2] = system: CAKI-1; test: Inhibitory concentration againstHuman Caki-1 Renal CellCarcinoma Cell Lines (CD70+) at 96th hour; n=1; type: functional, cell-based; conditions: Homo sapiens
[3] = Inhibitory concentration againstHuman Karpas 299 Anaplastic Large Cell Lymphoma (CD30+) at 4th hour; n=1; type: functional, Homo sapiens
[4] = system: CAKI-1; test: Inhibitory concentration againstHuman Caki-1 Renal CellCarcinoma Cell Lines (CD70+) at 4th hour; n=1; type: functional, cell-based; conditions: Homo sapiens
[5] = Inhibitory concentration againstHuman cell lung carcinoma cell line NCI-H69/LX4; n=3; type: functional, cell-based, Homo sapiens
[6] = system: NCI-H69; test: Inhibitory concentration againstHuman cell lung carcinoma cell line NCI-H69; n=3; type: functional, cell-based, Homo sapiens
[7] = Inhibitory concentration againstHuman Karpas 299 Anaplastic Large Cell Lymphoma (CD30+) at 96th hour; n=1; type: functional, Homo sapiens
[8] = system: CAKI-1; test: Inhibitory concentration againstHuman Caki-1 Renal CellCarcinoma Cell Lines (CD70+) at 96th hour; n=14; type: functional, cell-based; conditions: Homo sapiens
[9] = Inhibitory concentration againstHuman Karpas 299 Anaplastic Large Cell Lymphoma (CD30+) at 96th hour; n=39; type: functional, Homo sapiens

## COc1ccc(/C=C/C(=O)N2CC(CCl)c3c2cc(N)c2ccccc32)cc1 (stereo not given)
[1]
  IC50: 1.17 nM
[2]
  IC50: 0.68 nM
[3]
  IC50: 0.34 nM
[4]
  IC50: 0.59 nM
[5]
  IC50: 2.87 nM
[6]; Homo sapiens, NCI-H69
  IC50: 0.87 nM

## COc1cc2c(c(OC)c1OC)NC(C(=O)N1CC(CCl)c3c1cc(O)c1ncccc31)C2 (stereo not given)
[7]
  IC50: 0.18 nM
[2]
  IC50: 0.45 nM
[3]
  IC50: 0.28 nM
[4]
  IC50: 0.55 nM

## COc1ccc(/C=C/C(=O)N2CC(CCl)c3c2cc(NC(=O)C(CCCCN)NC(=O)C(NC(=O)CCOCCOCCOCCOCCNC(=O)CBr)C(C)C)c2ccccc32)cc1 (stereo not given)
[5]
  IC50: 20.7 nM
[6]; Homo sapiens, NCI-H69
  IC50: 13.4 nM

## COc1cccc2c1C(=O)c1c(O)c3c(c(O)c1C2=O)C[C@@](O)(C(=O)CO)C[C@@H]3O[C@H]1C[C@H](N)[C@H](O)[C@H](C)O1 [DOXORUBICIN]
[5]
  IC50: 1800 nM
[6]; Homo sapiens, NCI-H69
  IC50: 11.3 nM

## CO[C@@]12[C@H](COC(N)=O)C3=C(C(=O)C(C)=C(N)C3=O)N1C[C@@H]1N[C@@H]12 [MITOMYCIN]
[8]
  IC50: 40 nM
[3]
  IC50: 525 nM
[4]
  IC50: 251 nM
[9]
  IC50: 133 nM

## CISPLATIN
[5]
  IC50: 2820 nM
[6]; nci-h69
  IC50: 683 nM
